According to patent US9877978B2, “Compositions comprising NDGA derivatives and sorafenib and their use in treatment of cancer” (THE JOHNS HOPKINS UNIVERSITY, priority 2012, dated 2018):
Where two headings read alike, the source gives them in different places.

Experiments:
[1] = tested on: caspase activation (procaspases 9, 4 and 7, caspase 3) in AsPc-1 human pancreatic carcinoma cells; experiment: Western immunoblot analysis of caspase activation; assay type: cell-based; conditions: for caspase activation (procaspase cleavage): 80 μM M4N, 40 μM sorafenib (FIG. 17); for caspase 3 activation: after 18 h of treatment
Method: Western immunoblot analysis. Treated and control cells were washed with PBS and suspended in RIPA buffer (150 mM NaCl, 50 mM Tris-HCL (pH8.0), 0.1% SDS, 1% NP40, and 0.5% deoxycholate) supplemented with protease inhibitor cocktail. After a 20 min incubation on ice, the suspension was centrifuged to clear the solubilized proteins. Bradford protein assay were performed and samples containing equivalent amounts of protein were resolved by standard SDS-polyacrylamide gel electrophoresis and transferred to nirocellulose membrane. The membranes were blocked with skim milk, and incubated with primary antibodies at 4° C. overnight and then with secondary antibody conjugated with horse radish peroxidase at room temperature for 1 h. The signals were detected by western blot chemiluminescence detection reagent.

HepG2 human HCC cells = experiment: MTT cytotoxicity assay with median-effect / combination index analysis; assay type: cell-based; conditions: for DRI value at ED75 / DRI value at ED90 / DRI value at ED95: single agent vs combination; for IC50: Homo sapiens
Method: Cytotoxicity assay. […] M4N was used at concentrations between 0 and 80 μM. For the combination of M4N and sorafenib a constant molar ratio of 2:1 (M4N:sorafenib) was used. Twenty four hours after drug addition, cytotoxicity was assessed with the MTT assay with […] measured with a Power Wave 200 microplate reader.
Evaluation of drug interactions. The combination index (CI) isobologram method of Chou and Talalay, which is based on the median-effect principle, was used to calculate synergism or antagonism for the combined drug effects. Dose-effect curves for the two drugs, singly and in combination, in serially diluted concentrations were plotted using the median-effect equation and plot and the CI equation and plot. CI values at different effect and dose levels and isobolograms were generated automatically using the computer software CompuSyn. With this method, additive, synergistic, or antagonistic effects are indicated by CI values of 1, <1, and >1, respectively. Comparison of the ratio of doses required to reach a given effect level for each single drug and the drugs in combination was used to determine the dose-reduction.

[2] = HepG2, concurrent administration of M4N

SMILES	caspase activation (procaspase cleavage) [1]	caspase 3 activation [1]	DRI value at ED75 (HepG2 human HCC cells; HepG2, 24 h)	DRI value at ED90 (HepG2 human HCC cells; HepG2, 24 h)	DRI value at ED95 (HepG2 human HCC cells; HepG2, 24 h)	DRI: decrease of concentration necessary to inhibit growth of 50% of cells (ED50) (HepG2 human HCC cells; [2])	DRI: decrease of concentration necessary to inhibit growth of 75% of cells (ED75) (HepG2 human HCC cells; [2])	DRI: decrease of concentration necessary to inhibit growth of 95% of cells (ED95) (HepG2 human HCC cells; [2])	IC50 (HepG2 human HCC cells; HepG2, after 24 h of treatment (FIG. 4), read-out: IC50 against HepG2 cells) [µM]	cytotoxic effect (HepG2 human HCC cells; sorafenib 20 μM alone, HepG2, 24 h) [%]	IC50 (HepG2 human HCC cells; HepG2, 24-Hour Treatment, combination at constant molar ratio 2:1 (M4N:sorafenib), read-out: Dm, median effect dose (concentration that inhibits cell growth by 50%)) [µM]
CNC(=O)c1cc(Oc2ccc(NC(=O)Nc3ccc(Cl)c(C(F)(F)F)c3)cc2)ccn1 [sorafenib]	decreased levels of procaspases 9, 4 and 7	neither drug nor their combination had an effect	92815.6	489945.0	1519041	17,583.1 fold	92,815.6 fold	151,9041 fold	~30	~20	
COc1ccc(C[C@@H](C)[C@@H](C)Cc2ccc(OC)c(OC)c2)cc1OC [M4N, tetra-O-methyl nordihydroguaiaretic acid]	little effect on caspase activation	neither drug nor their combination had an effect	3.15	1.75	1.17						283
